Earlier results as cited in US20170165232A1, “THREE-PHASE CONTROLLED-RELEASE TABLET COMPRISING MELATONIN AND PROCESS OF PREPARATION” (Ambros Pharma S.R.L., priority 2010, published 2017).

Conditions: in humans

half-life: about 40 minutes
Structure (SMILES): COc1ccc2[nH]cc(CCNC(C)=O)c2c1 [melatonin, N-acetyl-5-methoxytryptamine]
